Literature values, collected in patent publication US6485708B1, “Products and methods for the remineralization and prevention of demineralization of teeth” (Church & Dwight Co. Inc., priority 1999, dated 2002).

Details: aqueous solution, pH about 7.0, about 25° C.

Question: For O.O.O=P([O-])([O-])O.[Ca+2] [dicalcium phosphate dihydrate], which calcium cations released is on record?
Answer: about 40 ppm
